8 molecules from publication PMC9356275, “A quantitative high-throughput screen identifies compounds that lower expression of the SCA2-and ALS-associated gene ATXN2” (The Journal of Biological Chemistry, 2022) can be followed below.

The subject of data set [1] is ATXN2-luc. As to the kind of experiment: MSSR pilot screen: ATXN2-luc luciferase assay (Bright-Glo) in H2 cells, single 10 μM dose. Format: cell-based, human. To be noted: for SD from mean (ATXN2-luc, Z-score): H2 cells, single dose (title: 10 μM compound), overnight; for SD from mean (pilot screen) / ¦Score/1SD¦: pilot screen; for ¦Score/1SD¦: absolute score divided by 1SD (0.891 or 0.9).

Another data set deals with H2 and S1 cells. As to the kind of experiment: Paired MTT viability assay, average of H2 and S1 cells (1 and 10 uM). Format: cell-based, human. Also noted: H2&S1 ave MTT 1uM / H2&S1 ave MTT 10uM: unit not given here. The settings on record: for viability at 1 µM / viability at 10 µM: Homo sapiens. The source says: (§1) Supplement mmc2.xlsx, sheet "43 annotated compounds"
A general note: Tetrazolium dyes change colour on reduction, which living cells bring about.

The test system of data set [2] is ATXN2-luc. As to the kind of experiment: MSSR hit retest: ATXN2-luc luciferase assay, average of H2 and S1 cells (1 and 10 uM). To be noted: for H2&S1 ave luc 10uM: head line r4 20 uM compound; for activity at 1 µM: read-out: H2&S1 ave luc 1uM. Format: cell-based, human. Set-up: H2&S1 ave luc 1uM / H2&S1 ave luc 10uM: scale not given here.
Excerpt: as §1

Data set [3] has as its system ATXN2-luc. As to the kind of experiment: MSSR hit retest / multiconcentration testing: ATXN2-luc luciferase assay in H2 cells (1 and 10 μM). Format: cell-based, human. To be noted: luciferase assay, average of H2 and S1 cells (both ATXN2-luc), rescreen from plated libraries; for H2&S1 ave luc 1uM: 1 uM compound; for H2&S1 ave luc 10uM: 10 uM compound.
The test system of data set [4] is ATXN2-luc. As to the kind of experiment: Secondary assays: ATXN2-luc in S2 and H2 cells, 12 doses, Bright-Glo. It is filed as cell-based, human. To be noted: summary data; for IC50: ATXN2-luc luciferase assays in H2 and S2 cells, 12 doses plus a zero dose, read-out: Mean IC50; for min ATXN2-luc (%): minimum ATXN2-luc signal over 12 doses, H2 and S2 cells. The procedure: (§2) The values for H2 and S2 were used as replicates to calculate IC50s and to assess cell viability.
(§3) Compounds were plated at 2× concentrations in phenol red–free DMEM in 25 μl in 384-well plates with each compound dose plated in triplicate. An equal volume of S2, H2, or SC cells (24,000 cells/well) suspended in phenol red–free DMEM with 10% fetal bovine serum and 1× penicillin/streptomycin were added. Cells were grown 24 h and then assayed first by using the CellTiter-Fluor reagent (20 μl) followed by the addition of Bright-Glo (65 μl) luciferase assay, using a multimode plate reader (Beckman; DT880). Values were reported as the mean ± SD with n = 3. IC50s were determined by the Hill coefficient method using an online tool (https://www.aatbio.com/tools/ic50-calculator).

The test system of a further data set is S2, H2 or SC cells. As to the kind of experiment: Secondary assays: multiplexed cell viability (CellTiter-Fluor). The settings on record: minimum viability, multiplexed CellTiter-Fluor, over 12 doses; summary data. Here is the method:
as §2, §3

In a further data set the test system is CMV-luc. As to the kind of experiment: Secondary assays: CMV-luc in SC cells, Bright-Glo. Format: cell-based, human. To be noted: minimum CMV-luc signal in SC cells over 12 doses; summary data. The procedure:
as §3

Setting [5] is: H2 cells expressing ATXN2-luc, single dose printed as 10 μM compound.
Where [6] appears, read: 1 uM compound, average of H2 and S1 cells.
The mark [7] stands for this setting: head line r3 10uM, average of H2 and S1 cells.

Read-outs that look alike come from different tables or passages of the source.

Consider `CO[C@H]1[C@@H](O)[C@@H](C)O[C@@H](O[C@H]2CC[C@]3(C)[C@H]4CC[C@]5(C)[C@@H](C6=CC(=O)OC6)CC[C@]5(O)[C@@H]4CC[C@]3(O)C2)[C@@H]1O` [EMICYMARIN], for which, in the data set with ATXN2-luc [1], the “SD from mean (ATXN2-luc, Z-score)” value was -3.080 SD; the “SD from mean (pilot screen)” value was -3.080 SD; the “¦Score/1SD¦” value was 3.42. Further, the “SD from mean (pilot screen)” value with ATXN2-luc [1] (setting [5]) is -3.080. Besides, the “H2&S1 ave MTT 1uM” value in the data set with H2 and S1 cells (1 uM compound) is on record as 111.923. Also, the “H2&S1 ave MTT 10uM” value in the data set on H2 and S1 cells (10 uM compound) is 53.425. In addition, the “H2&S1 ave luc 1uM” value in the data set on ATXN2-luc [2] (setting [6]) was 115. The “H2&S1 ave luc 10uM” value in the data set with ATXN2-luc [2] (setting [7]) was found to be 31. Besides, in the data set on ATXN2-luc [3], the “H2&S1 ave luc 1uM” value turned out to be 115 and the “H2&S1 ave luc 10uM” value worked out at 31.

For `CNC1CC(c2ccc(Cl)c(Cl)c2)c2ccccc21` (centres unmarked) [Indatraline], in the data set on ATXN2-luc [1], the “SD from mean (pilot screen)” value is -3.071 SD and the “¦Score/1SD¦” value is 3.41. Further, the “SD from mean (pilot screen)” value in the data set on ATXN2-luc [1] (setting [5]) is -3.071. Further, the viability at 1 µM in the data set on H2 and S1 cells (read-out: H2&S1 ave MTT 1uM, 1 uM compound) worked out at 117%. Moreover, in the data set with H2 and S1 cells (read-out: H2&S1 ave MTT 10uM, 10 uM compound), the viability at 10 µM is 13.5%. In addition, in the data set on ATXN2-luc [2] (Homo sapiens), the activity at 1 µM amounted to 107%. In addition, the activity in the data set on ATXN2-luc [2] (Homo sapiens, read-out: H2&S1 ave luc 10uM) amounted to 5.53%. The “H2&S1 ave luc 1uM” value with ATXN2-luc [3] was 107.

As to `CS(=O)(=O)Nc1ccc(Cc2noc(-c3ccc4[nH]cc(CCN)c4c3)n2)cc1` [L-694 247], the “SD from mean (ATXN2-luc, Z-score)” value with ATXN2-luc [1] was -3.156 SD. Besides, the “SD from mean (pilot screen)” value in the data set on ATXN2-luc [1] is given as -3.156 SD; in the data set with ATXN2-luc [1] (setting [5]), -3.156. Moreover, the “¦Score/1SD¦” value in the data set on ATXN2-luc [1] worked out at 3.51. The “H2&S1 ave MTT 1uM” value with H2 and S1 cells (1 uM compound) was 107.272. Moreover, the “H2&S1 ave MTT 10uM” value in the data set with H2 and S1 cells (10 uM compound) is listed as 16.3621. Moreover, the “H2&S1 ave luc 1uM” value in the data set on ATXN2-luc [2] (setting [6]) and with ATXN2-luc [3] was 110 throughout. Besides, the “H2&S1 ave luc 10uM” value with ATXN2-luc [2] (setting [7]) and in the data set on ATXN2-luc [3] was 6 each time.

Turning to `Cc1cnc(NC(=O)CN2CCN(c3ccccn3)CC2)s1` [MLS000035284-02], in the data set with ATXN2-luc [4], the IC50 was determined as 12.9 µM and the “min ATXN2-luc (%)” value is reported as 38.5658%. In addition, in the data set on S2, H2 or SC cells, the “min viability (%)” value is 76.8459%. Moreover, the “min SC luc (%)” value in the data set on CMV-luc is given as 4.094%.

As for `Clc1ccc(C[n+]2cc(-c3ccccc3)n3c2CCCCC3)c(Cl)c1.[Br-]` [MLS000420216-02], in the data set on ATXN2-luc [4], the IC50 was 8.08 µM and the “min ATXN2-luc (%)” value is reported as 56.4685%. Moreover, the “min viability (%)” value in the data set on S2, H2 or SC cells amounted to 84.5162%. Also, the “min SC luc (%)” value in the data set with CMV-luc came out at 72.1585%.

In the case of `S=C(NCCCN1CCOCC1)N1CCN(c2nc(-c3ccccc3)cs2)CC1` [MLS000706289-02], in the data set on ATXN2-luc [4], the half-inhibitory concentration (IC50) was 6.85 µM and the “min ATXN2-luc (%)” value amounted to 61.6491%. Besides, the “min viability (%)” value with S2, H2 or SC cells came to 89.1129%. Also, the “min SC luc (%)” value with CMV-luc was determined as 79.3012%.

As to `CC1=CC(=O)c2ccccc2C1=O` [Menadione], in the data set with ATXN2-luc [1], the “SD from mean (ATXN2-luc, Z-score)” value is listed as -3.434 SD; the “SD from mean (pilot screen)” value is listed as -3.434 SD; the “¦Score/1SD¦” value was determined as 3.85. In addition, the “SD from mean (pilot screen)” value with ATXN2-luc [1] (setting [5]) is listed as -3.434. Besides, the viability at 1 µM with H2 and S1 cells (1 uM compound, read-out: H2&S1 ave MTT 1uM) was determined as 153%. Moreover, the viability at 10 µM in the data set on H2 and S1 cells (10 uM compound, read-out: H2&S1 ave MTT 10uM) came to 103%. Further, the activity at 1 µM with ATXN2-luc [2] (Homo sapiens, 1 uM compound, average of H2 and S1 cells) turned out to be 115%. In addition, the activity at 10 µM in the data set on ATXN2-luc [2] (Homo sapiens, head line r3 10uM, average of H2 and S1 cells, read-out: H2&S1 ave luc 10uM) was determined as 35%. Also, the “H2&S1 ave luc 1uM” value in the data set on ATXN2-luc [3] came out at 115.

Consider `COc1ccc(CCCOC(Cn2ccnc2)c2ccc(OC)cc2)cc1` (centres unmarked) [SKF-96365], for which, in the data set with ATXN2-luc [1], the “SD from mean (ATXN2-luc, Z-score)” value is reported as -2.721 SD. Besides, the results for the “SD from mean (pilot screen)” value with ATXN2-luc [1] and in the data set with ATXN2-luc [1] (setting [5]) were -2.721 SD and -2.721, respectively. Further, in the data set with ATXN2-luc [1], the “¦Score/1SD¦” value was 3.05. Also, in the data set with H2 and S1 cells (1 uM compound), the “H2&S1 ave MTT 1uM” value was 115.609. Besides, the “H2&S1 ave MTT 10uM” value in the data set on H2 and S1 cells (10 uM compound) was 90.0391. For the same molecule, the “H2&S1 ave luc 1uM” value in the data set with ATXN2-luc [2] (setting [6]) and in the data set with ATXN2-luc [3] was 104 each time. The “H2&S1 ave luc 10uM” value in the data set with ATXN2-luc [2] (setting [7]) and with ATXN2-luc [3] was 57 each time.

As a reminder, the IC50 is the concentration that gives 50% inhibition.
